≈ marks a conversion by molar mass, not a printed value.
Columns and labels:
[1] = system: Streptomyces fradiae E2724.1; assay: Antibiotic sensitivity (sensitivity discs), E2724.1; type: cell-based; conditions: discs: chloramphenicol 30 μg, erythromycin 15 μg, cephaloridine 30 μg, lincomycin 2 μg, polymyxin B 300 units, streptomycin 10 μg, tetracycline 30 μg, vancomycin 30 μg; further: key: -: resistance (no zones of inhibition); +: sensitivity (zones of inhibition); trace of sensitivity
From the text: (§1) ^a Determined by using sensitivity discs padded onto seededagar

[2] = system: Streptomyces fradiae NRRL 11271; assay: Antibiotic sensitivity (sensitivity discs), NRRL 11271; type: cell-based; conditions: discs: chloramphenicol 30 μg, erythromycin 15 μg, cephaloridine 30 μg, lincomycin 2 μg, polymyxin B 300 units, streptomycin 10 μg, tetracycline 30 μg, vancomycin 30 μg; further: key: -: resistance (no zones of inhibition); +: sensitivity (zones of inhibition); trace of sensitivity
From the text: as §1

[3] = system: gram-positive microorganisms and Mycoplasma species; assay: Growth inhibition of pathogenic organisms (general statement); type: cell-based
[4] = system: Streptococcus sp. (Group D) 282; assay: MIC, standard agar-dilution assay, Streptococcus sp. (Group D) 282; type: cell-based
Mycoplasma hyorhinis = assay: MIC, standard agar-dilution assay, Mycoplasma hyorhinis; type: cell-based
[5] = Electrometric titration of DMOT (pKa); type: physicochemical; conditions: 66% aqueous dimethylformamide
From the text: Electrometric titration of DMOT in 66% aqueous dimethylformamide indicates the presence of a titratable group with a pKa value of about 7.3.

Pasteurella multocida = assay: MIC, standard agar-dilution assay, Pasteurella multocida; type: cell-based
[6] = system: Streptococcus pneumoniae Park I; assay: MIC, standard agar-dilution assay, Streptococcus pneumoniae Park I; type: cell-based
[7] = system: Streptococcus pyogenes C203; assay: MIC, standard agar-dilution assay, Streptococcus pyogenes C203; type: cell-based
Pasteurella hemolytica = assay: MIC, standard agar-dilution assay, Pasteurella hemolytica; type: cell-based
Solubility = type: physicochemical; conditions: free base
[8] = system: Streptococcus pyogenes C203; assay: In vivo activity against experimental bacterial infection in mice (ED50); conditions: C203, sc, subcutaneous, two doses, bacterial challenge 268 X LD50, effective dose to protect 50% of the test animals
Description: The DMOT compounds have shown in vivo antimicrobial activity against experimental bacterial infections. When two doses of test compound were administered to mice in experimental infections, the activity observed was measured as an ED50 value [effective dose in mg/kg to protect 50% of the test animals: see Warren Wick, et al., J. Bacteriol. 81, 233-235 (1961)].
^a Subcutaneous; mg/kg × 2

Mycoplasma hyopneumoniae = assay: MIC, standard agar-dilution assay, Mycoplasma hyopneumoniae; type: cell-based; conditions: Mesomycoplasma hyopneumoniae
Mycoplasma gallisepticum = assay: MIC, standard agar-dilution assay, Mycoplasma gallisepticum; type: cell-based; conditions: Mycoplasmoides gallisepticum
[9] = system: Staphylococcus aureus 3055; assay: MIC, standard agar-dilution assay, Staphylococcus aureus 3055; type: cell-based

Structure (SMILES): CN(C)[C@@H]1C(O)=C(C(N)=O)C(=O)[C@@]2(O)C(O)=C3C(=O)c4c(O)cccc4[C@@](C)(O)[C@H]3C[C@@H]12 [Tetracycline]
- Antibiotic sensitivity, E2724.1 [1]: +
- Antibiotic sensitivity, NRRL 11271 [2]: +

Structure (SMILES): CCC1OC(=O)CC(O)C(C)C(OC2OC(C)C(OC3CC(C)(O)C(O)C(C)O3)C(N(C)C)C2O)C(CCO)CC(C)C(=O)C=CC(C)=CC1C (stereo not shown) [dihydro-DMOT, 20-dihydro-23-de(mycinosyloxy)tylosin]
- antibacterial activity (in words) [3]: especially active against gram-positive microorganisms and Mycoplasma species

Structure (SMILES): [H]/N=C(/N)N[C@H]1[C@H](O)[C@@H](O)[C@H](O[C@@H]2O[C@@H](C)[C@](O)(C=O)[C@H]2O[C@@H]2O[C@@H](CO)[C@H](O)[C@@H](O)[C@@H]2NC)[C@@H](N/C(N)=N\[H])[C@@H]1O [Streptomycin]
- Antibiotic sensitivity, E2724.1 [1]: +
- Antibiotic sensitivity, NRRL 11271 [2]: +

Structure (SMILES): O=C(N[C@H](CO)[C@H](O)c1ccc([N+](=O)[O-])cc1)C(Cl)Cl [Chloramphenicol]
- Antibiotic sensitivity, E2724.1 [1]: +
- Antibiotic sensitivity, NRRL 11271 [2]: +

Structure (SMILES): CC[C@H]1OC(=O)[C@H](C)[C@@H](O[C@H]2C[C@@](C)(OC)[C@@H](O)[C@H](C)O2)[C@H](C)[C@@H](O[C@@H]2O[C@H](C)C[C@H](N(C)C)[C@H]2O)[C@](C)(O)C[C@@H](C)C(=O)[C@H](C)[C@@H](O)[C@]1(C)O [Erythromycin]
- Antibiotic sensitivity, NRRL 11271 [2]: +

Structure (SMILES): CCC1OC(=O)CC(O)C(C)C(OC2OC(C)C(OC3CC(C)(O)C(O)C(C)O3)C(N(C)C)C2O)C(CC=O)CC(C)C(=O)C=CC(C)=CC1C (stereo not shown) [DMOT, 23-de(mycinosyloxy)tylosin]
- MIC [4]: 0.5 µg/mL (≈ 0.689 µM)
- MIC (Mycoplasma hyorhinis): 0.78 µg/mL (≈ 1.07 µM)
- pKa [5]: ~7.3
- antibacterial activity (in words) [3]: especially active against gram-positive microorganisms and Mycoplasma species
- MIC (Pasteurella multocida): 6.25 µg/mL (≈ 8.61 µM)
- MIC [6]: 0.13 µg/mL (≈ 0.179 µM)
- MIC [7]: 0.25 µg/mL (≈ 0.344 µM)
- MIC (Pasteurella hemolytica): 25 µg/mL (≈ 34.4 µM)
- solubility in polar organic solvents (Solubility; most polar organic solvents, such as acetone, methanol, ethanol, dimethylformamide, chloroform and dimethyl sulfoxide): soluble
- solubility in water (Solubility; water): sparingly soluble
- ED50 [8]: 6.3 mg/kg
- MIC (Mycoplasma hyopneumoniae): 0.39 µg/mL (≈ 0.537 µM)
- MIC (Mycoplasma gallisepticum): 0.097 µg/mL (≈ 0.134 µM)
- MIC [9]: 1 µg/mL (≈ 1.38 µM)

Structure (SMILES): O=C(Cc1cccs1)N[C@@H]1C(=O)N2C(C(=O)[O-])=C(C[n+]3ccccc3)CS[C@H]12 [Cephaloridine]
- Antibiotic sensitivity, E2724.1 [1]: +
- Antibiotic sensitivity, NRRL 11271 [2]: +

Structure (SMILES): CCC[C@@H]1C[C@@H](C(=O)N[C@@H]([C@H]2O[C@H](SC)[C@H](O)[C@@H](O)[C@H]2O)[C@@H](C)O)N(C)C1 [Lincomycin]
- Antibiotic sensitivity, E2724.1 [1]: -
- Antibiotic sensitivity, NRRL 11271 [2]: -

Structure (SMILES): CN[C@H](CC(C)C)C(=O)N[C@H]1C(=O)N[C@@H](CC(N)=O)C(=O)N[C@H]2C(=O)N[C@H]3C(=O)N[C@H](C(=O)N[C@H](C(=O)O)c4cc(O)cc(O)c4-c4cc3ccc4O)[C@H](O)c3ccc(c(Cl)c3)Oc3cc2cc(c3O[C@@H]2O[C@H](CO)[C@@H](O)[C@H](O)[C@H]2O[C@H]2C[C@](C)(N)[C@H](O)[C@H](C)O2)Oc2ccc(cc2Cl)[C@H]1O [Vancomycin]
- Antibiotic sensitivity, E2724.1 [1]: +
- Antibiotic sensitivity, NRRL 11271 [2]: +

Reference: patent US4334019A, “Process for producing de(mycinosyloxy)tylosin” (Eli Lilly and Company, priority 1981, dated 1982)
